# Assay results taken from DBAASP.
# Values joined by “and” are separate entries in the source; they are usually repeats but may differ in a detail not shown here. Identical values can stand only once.
# Experiments:
# Assay in all cases: ≥ marks a high value that may be exact or a test limit, other limits are often not marked, values filed in µg/mL are converted to µM
# [1] = test system: Escherichia coli ATCC 25922
# Escherichia coli = test system: Escherichia coli
# Staphylococcus aureus = test system: Staphylococcus aureus
# [2] = test system: Staphylococcus aureus ATCC 25923
# [3] = test system: Pseudomonas aeruginosa ATCC 27853
Compound,MIC [1],MIC [2],also measured
CC(C)C[C@H](NC(=O)[C@H](CCC(N)=O)NC(=O)[C@H](CCCN=C(N)N)NC(=O)[C@H](CCCN=C(N)N)NC(=O)[C@@H]1CCCN1C(=O)[C@H](C)N)C(=O)N[C@@H](CCCCN)C(=O)N[C@@H](Cc1c[nH]c2ccccc12)C(=O)O [APRRQLKW],15.2 µM,–,–
CSCC[C@@H]1NC(=O)[C@H](CC(C)C)NC(=O)[C@H](CCCN=C(N)N)NC(=O)[C@H](CO)NC(=O)[C@@H]2CSSC[C@@H]3NC(=O)[C@H](CO)NC(=O)CNC(=O)[C@H]([C@@H](C)O)NC(=O)[C@H](CSSC[C@H](N)C(=O)N[C@@H](CCCCN)C(=O)NCC(=O)N[C@@H](CCCCN)C(=O)NCC(=O)N[C@@H](C)C(=O)N[C@@H](CCCCN)C(=O)N2)NC(=O)[C@H](CSSC[C@@H](C(=O)NCC(=O)N[C@@H](CO)C(=O)O)NC(=O)[C@H](CCCCN)NC(=O)CNC(=O)[C@H](CO)NC(=O)[C@H](CCCN=C(N)N)NC3=O)NC(=O)[C@H](CC(=O)O)NC(=O)[C@H](Cc2ccc(O)cc2)NC1=O [CKGKGAKCSRLMYDCCTGSCRSGKCGS],–,–,MIC (Escherichia coli): > 500 µM; MIC (Staphylococcus aureus): > 500 µM
CC(C)[C@H](NC(=O)[C@H](CCCCN)NC(=O)[C@@H](N)Cc1ccccc1)C(=O)N[C@H](C(=O)N[C@@H](Cc1c[nH]c2ccccc12)C(=O)N[C@@H](CCCCN)C(=O)N[C@H](C(=O)N[C@@H](CCCCN)C(=O)N[C@@H](Cc1c[nH]c2ccccc12)C(=O)N[C@@H](Cc1c[nH]c2ccccc12)C(=O)N[C@@H](CCCCN)C(=O)NCC(N)=O)[C@@H](C)O)[C@@H](C)O [FKVTWKTKWWKG],4.38 µM,7.59 µM,–
CC[C@H](C)[C@H](NC(=O)[C@H](CCCCN)NC(=O)[C@H](CC(C)C)NC(=O)[C@H](C)NC(=O)[C@H](C)NC(=O)[C@H](CCCCN)NC(=O)[C@H](CC(C)C)NC(=O)[C@H](C)NC(=O)[C@H](CCCCN)NC(=O)CNC(=O)[C@H](CC(C)C)NC(=O)[C@H](Cc1ccccc1)NC(=O)[C@H](CO)NC(=O)CNC(=O)[C@H](Cc1ccccc1)NC(=O)CN)C(=O)NCC(=O)N[C@@H](C)C(=O)N[C@@H](CC(=O)O)C(=O)N[C@H](C(=O)N[C@@H](CC(C)C)C(=O)NCC(=O)NCC(=O)N[C@@H](C)C(=O)N1CCC[C@H]1C(=O)N[C@@H](CCC(N)=O)C(=O)N[C@@H](CCC(N)=O)C(=O)O)C(C)C [GFGSFLGKALKAALKIGADVLGGAPQQ],–,–,MIC (Escherichia coli): > 50 µM; MIC (Staphylococcus aureus): 25 µM
CC(C)C[C@H](NC(=O)[C@H](C)NC(=O)[C@H](CCCCN)NC(=O)[C@H](C)NC(=O)[C@H](C)NC(=O)CNC(=O)[C@H](CCCCN)NC(=O)[C@H](CC(C)C)NC(=O)[C@H](CC(C)C)NC(=O)[C@H](CC(=O)O)NC(=O)[C@H](CCCCN)NC(=O)[C@H](Cc1ccccc1)NC(=O)CN)C(=O)N[C@H](C(=O)N[C@@H](CCCCN)C(=O)N[C@H](C(=O)N[C@H](C(=O)N[C@@H](CC(C)C)C(=O)N[C@@H](CCCCN)C(N)=O)C(C)C)[C@@H](C)O)C(C)C [GFKDLLKGAAKALVKTVLK],5 µM,18.8 µM,–
CC[C@H](C)[C@H](NC(=O)CN)C(=O)N[C@@H](CCSC)C(=O)N[C@@H](CC(=O)O)C(=O)N[C@@H](CO)C(=O)N[C@H](C(=O)N[C@@H](CCCCN)C(=O)N[C@@H](CC(N)=O)C(=O)N[C@@H](C)C(=O)N[C@@H](C)C(=O)N[C@@H](CCCCN)C(=O)N[C@@H](CC(N)=O)C(=O)N[C@@H](CC(C)C)C(=O)N[C@@H](C)C(=O)NCC(=O)N[C@@H](CCC(N)=O)C(=O)N[C@@H](CC(C)C)C(=O)N[C@@H](CC(C)C)C(=O)N[C@@H](CC(=O)O)C(=O)N[C@H](C(=O)N[C@H](C(=O)N[C@@H](CCCCN)C(=O)N[C@H]1CSSC[C@@H](C(=O)O)NC(=O)[C@H](C)NC(=O)[C@H]([C@@H](C)O)NC(=O)[C@H]([C@@H](C)CC)NC(=O)[C@H](CCCCN)NC1=O)[C@@H](C)CC)[C@@H](C)O)C(C)C [GIMDSVKNAAKNLAGQLLDTIKCKITAC],25 µM,–,–
CC[C@H](C)[C@H](NC(=O)[C@H](CCCN=C(N)N)NC(=O)[C@H](CCCCN)NC(=O)[C@H](C)NC(=O)[C@H](CC(C)C)NC(=O)CN)C(=O)N[C@@H](CCCCN)C(=O)N[C@H](C(=O)N[C@@H](CC(C)C)C(=O)N[C@@H](CC(C)C)C(N)=O)[C@@H](C)O [GLAKRIKTLL],> 34.2 µM,> 34.2 µM,–
CC[C@H](C)[C@H](NC(=O)[C@H](CC(C)C)NC(=O)[C@H](CCCCN)NC(=O)[C@H](CC(C)C)NC(=O)[C@H](CC(C)C)NC(=O)CN)C(=O)N[C@@H](CCCCN)C(=O)N[C@H](C(=O)N[C@@H](CC(C)C)C(=O)N[C@@H](CC(C)C)C(N)=O)[C@@H](C)O [GLLKLIKTLL],1.8 µM,1.8 µM,–
CC[C@H](C)[C@H](NC(=O)[C@H](CCCCN)NC(=O)[C@@H](NC(=O)[C@H](CCCN=C(N)N)NC(=O)[C@H](CCCCN)NC(=O)[C@H](CC(C)C)NC(=O)[C@H](CC(C)C)NC(=O)CN)[C@@H](C)CC)C(=O)N[C@@H](CC(C)C)C(=O)N[C@@H](CC(C)C)C(N)=O [GLLKRIKILL],7.72 µM,12 µM,–
CC[C@H](C)[C@H](NC(=O)[C@H](CCCN=C(N)N)NC(=O)[C@H](CCCCN)NC(=O)[C@H](CC(C)C)NC(=O)[C@H](CC(C)C)NC(=O)CN)C(=O)N[C@@H](CCCCN)C(=O)N[C@@H](CO)C(=O)N[C@@H](CC(C)C)C(=O)N[C@@H](CC(C)C)C(N)=O [GLLKRIKSLL],100 µM,–,–
CC[C@H](C)[C@H](NC(=O)[C@H](CCCN=C(N)N)NC(=O)[C@H](CCCCN)NC(=O)[C@H](CC(C)C)NC(=O)[C@H](CC(C)C)NC(=O)CN)C(=O)N[C@@H](CCCCN)C(=O)N[C@H](C(=O)N[C@@H](CC(C)C)C(=O)N[C@@H](C)C(N)=O)[C@@H](C)O [GLLKRIKTLA],> 43.1 µM,> 43.1 µM,–
CC[C@H](C)[C@H](NC(=O)[C@H](CCCN=C(N)N)NC(=O)[C@H](CCCCN)NC(=O)[C@H](CC(C)C)NC(=O)[C@H](CCSC)NC(=O)CN)C(=O)N[C@@H](CCCCN)C(=O)N[C@H](C(=O)N[C@@H](CC(C)C)C(=O)N[C@@H](CCSC)C(N)=O)[C@@H](C)O [GMLKRIKTLM],> 200 µM,–,–
CC[C@H](C)[C@H](N)C(=O)NCC(=O)N[C@@H](CCCCN)C(=O)N[C@@H](CC(C)C)C(=O)N1CCC[C@H]1C(=O)N[C@@H](CCCCN)C(=O)N[C@@H](Cc1c[nH]c2ccccc12)C(=O)N[C@H](C(=O)N[C@H](C(=O)N[C@@H](CCCCN)C(=O)N[C@H](C(=O)N[C@H](C(=O)N[C@@H](CC(N)=O)C(=O)N[C@@H](CCCCN)C(=O)N[C@@H](Cc1ccccc1)C(=O)N[C@H](C(=O)N[C@@H](CCCCN)C(=O)N[C@@H](CCCCN)C(=O)O)[C@@H](C)O)C(C)C)[C@@H](C)O)[C@@H](C)CC)[C@@H](C)CC [IGKLPKWIIKTVNKFTKK],–,–,MIC (Escherichia coli): 2.1 µM
CC(C)C[C@H](NC(=O)[C@H](C)NC(=O)[C@H](CCCCN)NC(=O)[C@H](CC(C)C)NC(=O)[C@H](C)NC(=O)[C@H](CCCCN)NC(=O)[C@H](CCCCN)NC(=O)[C@H](CC(C)C)NC(=O)[C@H](C)NC(=O)[C@H](CCCCN)NC(=O)[C@H](CC(C)C)NC(=O)[C@H](C)NC(=O)[C@H](CCCCN)NC(=O)[C@H](CCCCN)NC(=O)[C@H](CC(C)C)NC(=O)[C@H](C)NC(=O)[C@H](CCCCN)NC(=O)[C@H](CC(C)C)NC(=O)[C@H](C)NC(=O)[C@@H](N)CCCCN)C(=O)N[C@@H](CCCCN)C(N)=O [KALKALKKALKALKKALKALK],4 µM,8 µM,MIC [3]: 4 µM
CC[C@H](C)[C@H](NC(=O)[C@H](CCCCN)NC(=O)[C@H](CCCN=C(N)N)NC(=O)[C@H](CC(C)C)NC(=O)[C@H](CCCN=C(N)N)NC(=O)[C@H](CO)NC(=O)[C@H](Cc1c[nH]c2ccccc12)NC(=O)[C@@H](NC(=O)[C@@H](N)CCCCN)C(C)C)C(=O)N[C@@H](Cc1ccccc1)C(=O)N[C@@H](CO)C(=O)N[C@H](C(=O)N[C@@H](CCCN=C(N)N)C(N)=O)[C@@H](C)O [KVWSRLRKIFSTR],2.64 µM and 5.27 µM,–,–
CC(C)C[C@H](NC(=O)[C@H](Cc1ccccc1)NC(=O)[C@@H]1CCCN1C(=O)[C@H](C)NC(=O)[C@H](Cc1c[nH]c2ccccc12)NC(=O)[C@H](C)NC(=O)[C@@H]1CCCN1C(=O)[C@H](Cc1ccccc1)NC(=O)[C@H](CCCN=C(N)N)NC(=O)[C@H](CCCN=C(N)N)NC(=O)[C@@H](N)C(C)C)C(=O)N[C@@H](CCCN=C(N)N)C(=O)N[C@@H](CCCN=C(N)N)C(N)=O [VRRFPAWAPFLRR],90.5 µM,–,–
CC(C)C[C@H](NC(=O)[C@H](Cc1ccccc1)NC(=O)[C@@H]1CCCN1C(=O)[C@H](C)NC(=O)[C@H](C)NC(=O)[C@H](Cc1c[nH]c2ccccc12)NC(=O)[C@@H]1CCCN1C(=O)[C@H](Cc1ccccc1)NC(=O)[C@H](CCCN=C(N)N)NC(=O)[C@H](CCCN=C(N)N)NC(=O)[C@@H](N)C(C)C)C(=O)N[C@@H](CCCN=C(N)N)C(=O)N[C@@H](CCCN=C(N)N)C(N)=O [VRRFPWAAPFLRR],90.5 µM,–,–
CC(C)[C@H](NC(=O)[C@H](CC(=O)O)NC(=O)[C@H](CO)NC(=O)[C@H](CCCCN)NC(=O)[C@@H](N)Cc1c[nH]c2ccccc12)C(=O)N[C@@H](CCCN=C(N)N)C(=O)N[C@@H](CCCN=C(N)N)C(=O)N[C@@H](Cc1c[nH]c2ccccc12)C(=O)N[C@@H](CCCN=C(N)N)C(=O)N[C@@H](CO)C(=O)N[C@@H](CCCN=C(N)N)C(=O)N[C@@H](Cc1ccc(O)cc1)C(N)=O [WKSDVRRWRSRY],64 µM,> 100 µM,MIC [3]: > 100 µM
CC(C)[C@H](NC(=O)[C@H](Cc1ccc(O)cc1)NC(=O)[C@H](CO)NC(=O)[C@H](CCCCN)NC(=O)[C@@H](N)Cc1c[nH]c2ccccc12)C(=O)N[C@@H](CCCN=C(N)N)C(=O)N[C@@H](CCCN=C(N)N)C(=O)N[C@@H](Cc1c[nH]c2ccccc12)C(=O)N[C@@H](CCCN=C(N)N)C(N)=O [WKSYVRRWR],64 µM,64 µM,MIC [3]: > 100 µM
